Measurements taken from US12077555B2, “STAT degraders and uses thereof” (Kymera Therapeutics, Inc., priority 2019, dated 2024).

Each molecule was assayed against STAT3 (Homo sapiens, UniProt P40763) (assay: Quantitation of STAT3 degradation in A549 cells by Western blot). Details: 24 hours, tested up to 30 μM or 10 μM, read-out: A549 DC50.
Assay type: cell-based
Parameters: expressed in transfected cells; host or cells: A549
Description: Degradation of total cellular STAT3 protein in A549 was quantitatively measured using SDS-PAGE and Western blot analysis. A549 cells (5×10^5 cells/well, 2 mL) were seeded into 6-well plates and were incubated in the incubator under 5% CO2 overnight to reach ˜80% confluency. The next day, the culture medium was changed with 1 ml fresh media. Then, 1 mL of media containing 2× compound solution was added into the well to make the final concentration of 30 μM, 10 μM, 3 μM, 1 μM, 0.3 μM and 0 μM (DMSO). The media was thoroughly mixed and incubated for 24 hours at 37° C. under 5% CO2. Then, the culture media was removed from the assay plates and the cells were washed with ice-cold PBS twice. To prepare cell lysates, 200 ul pre-chilled RIPA lysis buffer (Boston BioProducts BP-115D) with protease/phosphatase inhibitor (Roche 05892791001/Roche 04906837001) was added directly into the well to lyse the cells for 20 minutes on ice. The cell lysates were then transferred to centrifuge tubes. Insoluble part of lysates was removed by centrifuging the lysates at 13000 rpm for 20 minutes. The supernatant was then collected and mixed with 5× loading buffer (Beyotime Bio P0015) to make the final samples for SDS-PAGE analysis. The samples were heated at 100° C. for 10 minutes and cool to room temperature before centrifuging at 13000 rpm for 20 minutes. To analyze the samples by SDS-PAGE, 10 ul samples were loaded onto SDS-PAGE gel (Novex, WG1403BOX) and the SDS-PAGE gel was run for 20 minutes at 80 V, then at 120 V for 1.5 hours. The SDS-PAGE gel was then transferred to nitrocellulose membrane using the wet-transfer method at 250 mA for 1.5 hours. The membrane was then blocked with LI-COR blocking buffer (LI-COR, 927-50000) for 1 hour and was probed with primary antibody (mouse anti-STAT3 (124H6) (CST #91395) 1:2000 or mouse anti-beta-Actin (8H10D10) (CST #3700) 1:10000) at 4° C. overnight. The membrane was then washed three times with TBST buffer and probed with secondary antibody (anti-mouse IgG (LI-COR, 926-68070), 1:5000) for 1 hour at room temperature. The membrane was then scanned on a LI-COR Odyssey instrument and was quantified using Image Studio Version 5.2. Concentration at 50% degradation (DC50) was calculated by fitting dose dependent degradation data using a sigmoidal equation using GraphPad Prism Version 8.0.

Chain of STAT3 (P40763 whole entry): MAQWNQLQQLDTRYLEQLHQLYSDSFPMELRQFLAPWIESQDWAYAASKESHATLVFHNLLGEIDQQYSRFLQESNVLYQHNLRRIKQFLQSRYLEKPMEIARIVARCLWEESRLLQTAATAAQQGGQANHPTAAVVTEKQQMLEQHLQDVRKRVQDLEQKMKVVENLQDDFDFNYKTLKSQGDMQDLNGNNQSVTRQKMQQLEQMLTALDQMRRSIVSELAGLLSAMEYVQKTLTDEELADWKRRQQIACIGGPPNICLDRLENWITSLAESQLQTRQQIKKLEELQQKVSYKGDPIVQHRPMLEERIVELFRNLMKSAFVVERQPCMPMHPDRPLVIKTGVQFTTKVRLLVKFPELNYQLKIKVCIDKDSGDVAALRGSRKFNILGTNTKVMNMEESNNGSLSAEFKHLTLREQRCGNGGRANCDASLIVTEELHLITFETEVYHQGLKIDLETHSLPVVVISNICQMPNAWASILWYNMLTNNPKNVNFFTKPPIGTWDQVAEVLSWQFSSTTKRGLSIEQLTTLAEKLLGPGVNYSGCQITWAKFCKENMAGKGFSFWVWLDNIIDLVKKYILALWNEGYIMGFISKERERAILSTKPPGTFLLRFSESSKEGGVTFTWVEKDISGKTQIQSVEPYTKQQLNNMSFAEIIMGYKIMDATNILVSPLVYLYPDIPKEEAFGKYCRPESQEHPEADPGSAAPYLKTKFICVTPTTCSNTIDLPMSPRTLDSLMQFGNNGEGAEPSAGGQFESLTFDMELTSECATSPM

Row | Structure (SMILES) | DC50
1 | C/C(=C\C(=O)N[C@H]1CCc2cccc3c2N(C1=O)[C@H](C(=O)N[C@@H](CCC(N)=O)[C@@H](C)OCc1ccc(CCOCC(=O)N[C@H](C(=O)N2C[C@H](O)C[C@H]2C(=O)NCc2ccc(-c4scnc4C)cc2)C(C)(C)C)cc1)C3)c1ccc(C(F)(F)P(=O)(OCOC(=O)C(C)(C)C)OCOC(=O)C(C)(C)C)cc1 [Compound I-13] | < 30 µM
2 | C/C(=C\C(=O)N[C@H]1CCc2cccc3c2N(C1=O)[C@H](C(=O)N[C@@H](CCC(N)=O)[C@@H](C)OCc1ccc(CCCOCCOCCOCCOCCOc2cc(-c4scnc4C)ccc2CNC(=O)[C@@H]2C[C@@H](O)CN2C(=O)[C@@H](NC(=O)C2(F)CC2)C(C)(C)C)cc1)C3)c1ccc(C(F)(F)P(=O)(OCOC(=O)C(C)(C)C)OCOC(=O)C(C)(C)C)cc1 [Compound I-16] | > 30 µM

Same assay, conditions: read-out: A549 DC50, 24 hours, tested up to 30 μM or 10 μM

Row | Structure (SMILES) | DC50
3 | C/C(=C\C(=O)N[C@H]1CCc2cccc3c2N(C1=O)[C@H](C(=O)N[C@@H](CCC(N)=O)[C@@H](C)OCc1ccc(CCCCC(=O)N[C@H](C(=O)N2C[C@@H](O)C[C@H]2C(=O)NCc2ccc(-c4scnc4C)cc2)C(C)(C)C)cc1)C3)c1ccc(C(F)(F)P(=O)(OCOC(=O)C(C)(C)C)OCOC(=O)C(C)(C)C)cc1 [Compound I-2] | > 30 µM
4 | C/C(=C\C(=O)N[C@H]1CCc2cccc3c2N(C1=O)[C@H](C(=O)N[C@@H](CCC(N)=O)[C@@H](C)OCc1ccc(CCCCc2cccc4c2n(C)c(=O)n4C2CCC(=O)NC2=O)cc1)C3)c1ccc(C(F)(F)P(=O)(OCOC(=O)C(C)(C)C)OCOC(=O)C(C)(C)C)cc1 (stereo partly shown) [Compound I-3] | > 30 µM
5 | C/C(=C\C(=O)N[C@H]1CCc2cccc3c2N(C1=O)[C@H](C(=O)N[C@@H](CCC(N)=O)[C@@H](C)OCc1ccc(CC(=O)N[C@H](C(=O)N2C[C@H](O)C[C@H]2C(=O)NCc2ccc(-c4scnc4C)cc2)C(C)(C)C)cc1)C3)c1ccc(C(F)(F)P(=O)(OCOC(=O)C(C)(C)C)OCOC(=O)C(C)(C)C)cc1 [Compound I-4] | > 30 µM
6 | C/C(=C\C(=O)N[C@H]1CCc2cccc3c2N(C1=O)[C@H](C(=O)N[C@@H](CCC(N)=O)[C@@H](C)OCc1ccc(CCCOCc2cccc4c2n(C)c(=O)n4C2CCC(=O)NC2=O)cc1)C3)c1ccc(C(F)(F)P(=O)(OCOC(=O)C(C)(C)C)OCOC(=O)C(C)(C)C)cc1 (stereo partly drawn) [Compound I-5, [([4-[(1E)-1-[[(2S,11S)-2-[[(3S,4R)-1-carbamoyl-4-[[4-(3-[[1-(2,6-dioxopiperidin-3-yl)-3-methyl-2-oxo-1,3-benzodiazol-4-yl]methoxy]propyl)phenyl]methoxy]pentan-3-yl]carbamoyl]-12-oxo-1-azatricyclo[6.4.1.0^[4,13]]trideca-4(13),5,7-trien-11-yl]carbamoyl]prop-1-en-2-yl]phenyl]difluoromethyl([(2,2-dimethylpropanoyl)oxy]methoxy)phosphoryl)oxy]methyl 2,2-dimethylpropanoate] | > 30 µM
7 | C/C(=C\C(=O)N[C@H]1CCc2cccc3c2N(C1=O)[C@H](C(=O)N[C@@H](CCC(N)=O)[C@@H](C)OCc1ccc(CCCCCc2cccc4c2n(C)c(=O)n4C2CCC(=O)NC2=O)cc1)C3)c1ccc(C(F)(F)P(=O)(OCOC(=O)C(C)(C)C)OCOC(=O)C(C)(C)C)cc1 (stereo partly drawn) [Compound I-6, [([4-[(1E)-1-[[(2S,11S)-2-[[(3S,4R)-1-carbamoyl-4-[(4-[5-[1-(2,6-dioxopiperidin-3-yl)-3-methyl-2-oxo-1,3-benzodiazol-4-yl]pentyl]phenyl)methoxy]pentan-3-yl]carbamoyl]-12-oxo-1-azatricyclo[6.4.1.0^[4,13]]trideca-4(13),5,7-trien-11-yl]carbamoyl]prop-1-en-2-yl]phenyl]difluoromethyl([(2,2-dimethylpropanoyl)oxy]methoxy)phosphoryl)oxy]methyl 2,2-dimethylpropanoate] | > 30 µM
8 | C/C(=C\C(=O)N[C@H]1CCc2cccc3c2N(C1=O)[C@H](C(=O)N[C@@H](CCC(N)=O)[C@@H](C)OCc1ccc(CCCC(=O)N[C@H](C(=O)N2C[C@H](O)C[C@H]2C(=O)NCc2ccc(-c4scnc4C)cc2)C(C)(C)C)cc1)C3)c1ccc(C(F)(F)P(=O)(OCOC(=O)C(C)(C)C)OCOC(=O)C(C)(C)C)cc1 [Compound I-7] | < 30 µM
9 | C/C(=C\C(=O)N[C@H]1CCc2cccc3c2N(C1=O)[C@H](C(=O)N[C@@H](CCC(N)=O)[C@@H](C)OCc1ccc(CCCCC(=O)N[C@H](C(=O)N2C[C@H](O)C[C@H]2C(=O)NCc2ccc(-c4scnc4C)cc2)C(C)(C)C)cc1)C3)c1ccc(C(F)(F)P(=O)(OCOC(=O)C(C)(C)C)OCOC(=O)C(C)(C)C)cc1 [Compound I-8, (2S,4R)-1-[(2S)-2-[5-[4-([[(2R,3S)-3-[[(2S,11S)-11-amino-12-oxo-1-azatricyclo[6.4.1.0^[4,13]]trideca-4(13),5,7-trien-2-l]formamido]-5-carbamoylpentan-2-yl]oxy]methyl)phenyl]pentanamido]-3,3-dimethylbutanoyl]-4-hydroxy-N-[[4-(4-methyl-1,3-thiazol-5-yl)phenyl]methyl]pyrrolidine-2-carboxamide] | < 30 µM
10 | C/C(=C\C(=O)N[C@H]1CCc2cccc3c2N(C1=O)[C@H](C(=O)N[C@@H](CCC(N)=O)[C@@H](C)OCc1ccc(CCOCCCc2cccc4c2n(C)c(=O)n4C2CCC(=O)NC2=O)cc1)C3)c1ccc(C(F)(F)P(=O)(OCOC(=O)C(C)(C)C)OCOC(=O)C(C)(C)C)cc1 (stereo partly drawn) [Compound I-9, [([4-[(1E)-1-[[(2S,11S)-2-[[(3S,4R)-1-carbamoyl-4-[[4-(2-[3-[1-(2,6-dioxopiperidin-3-yl)-3-methyl-2-oxo-1,3-benzodiazol-4-yl]propoxy]ethyl)phenyl]methoxy]pentan-3-yl]carbamoyl]-12-oxo-1-azatricyclo[6.4.1.0^[4,13]]trideca-4(13),5,7-trien-11-yl]carbamoyl]prop-1-en-2-yl]phenyl]difluoromethyl([(2,2-dimethylpropanoyl)oxy]methoxy)phosphoryl)oxy]methyl 2,2-dimethylpropanoate] | > 30 µM
11 | C/C(=C\C(=O)N[C@H]1CCc2cccc3c2N(C1=O)[C@H](C(=O)N[C@@H](CCC(N)=O)[C@@H](C)OCc1ccc(CCCOCCCc2cccc4c2n(C)c(=O)n4C2CCC(=O)NC2=O)cc1)C3)c1ccc(C(F)(F)P(=O)(OCOC(=O)C(C)(C)C)OCOC(=O)C(C)(C)C)cc1 (stereo partly drawn) [Compound I-10, [([4-[(1E)-1-[[(2S,11S)-2-[[(3S,4R)-1-carbamoyl-4-[[4-(3-[3-[1-(2,6-dioxopiperidin-3-yl)-3-methyl-2-oxo-1,3-benzodiazol-4-yl]propoxy]propyl)phenyl]methoxy]pentan-3-yl]carbamoyl]-12-oxo-1-azatricyclo[6.4.1.0^[4,13]]trideca-4(13),5,7-trien-11-yl]carbamoyl]prop-1-en-2-yl]phenyl]difluoromethyl([(2,2-dimethylpropanoyl)oxy]methoxy)phosphoryl)oxy]methyl 2,2-dimethylpropanoate] | > 30 µM
12 | C/C(=C\C(=O)N[C@H]1CCc2cccc3c2N(C1=O)[C@H](C(=O)N[C@@H](CCC(N)=O)[C@@H](C)OCc1ccc(C(=O)N[C@H](C(=O)N2C[C@H](O)CC2C(=O)NCc2ccc(-c4scnc4C)cc2)C(C)(C)C)cc1)C3)c1ccc(C(F)(F)P(=O)(OCOC(=O)C(C)(C)C)OCOC(=O)C(C)(C)C)cc1 (stereo partly shown) [Compound I-11] | > 30 µM
13 | C/C(=C\C(=O)N[C@H]1CCc2cccc3c2N(C1=O)[C@H](C(=O)N[C@@H](CCC(N)=O)[C@@H](C)OCc1ccc(CCC(=O)N[C@H](C(=O)N2C[C@H](O)CC2C(=O)NCc2ccc(-c4scnc4C)cc2)C(C)(C)C)cc1)C3)c1ccc(C(F)(F)P(=O)(OCOC(=O)C(C)(C)C)OCOC(=O)C(C)(C)C)cc1 (stereo partly shown) [Compound I-12] | > 30 µM
